Measurements taken from patent US4278676A, “Heterocyclic compounds” (H. Lundbeck & Co. A/S, priority 1977, dated 1981).
Like-named read-outs stand apart in the source and are kept apart here.

How the values were obtained:
Acute toxicity (mice) = settings: mouse, in vivo
substantia nigra [1] = experiment: Bilateral injections into substantia nigra in rats; type: in vivo, rat
Procedure: (a) Bilateral injections. 0.1, 0.5, and 1.0 μg of Ia,HBr have been injected.

substantia nigra [2] = experiment: Unilateral injections into substantia nigra in rats; type: in vivo, rat
Procedure: (b) Unilateral injections. 0.1 and 0.5 μg of Ia,Hbr have been injected.

[3] = test system: methylphenidate-induced gnawing; experiment: Potentiation of methylphenidate-induced gnawing; type: in vivo; settings: Mus musculus, read-out: ED50 (the dose which causes potentiation in 50% of the animals), mice
Description: (a) Potentiation of methylphenidate-induced gnawing (Scheel-Kruger et al.: Muscimol differentially facilitates stereotypy but antagonizes motility induced by dopaminergic drugs. A complex GABA-DOPAMINE interaction. Life Sciences, 1978, Vol. 22, 75-84).

[4] = test system: morphine-induced motility; experiment: Antagonism of morphine-induced motility; type: in vivo; settings: Mus musculus; mice; read-out: MED (minimum effective dose), morphine-induced motility
Description: (b) Antagonism of morphine-induced motility (Christensen et al.: Muscimol antagonizes morphine hypermotility without potentiation of analgesia. European J. Pharmacol., 1978, 48, 459-462).

[5] = test system: isoniazide-induced convulsions; experiment: Antagonism of isoniazide-induced convulsions; type: in vivo; settings: Mus musculus, ip; mice, test compound i.p., isoniazide 300 mg/kg s.c.; read-out: MED (minimum effective dose), isoniazide-induced convulsions
Procedure: (c) Antagonism of isoniazide-induced convulsions (Modification (mice, two times lower concentration of isoniazide) of Mao et al.: Evidence for an involvement of GABA in the mediation of cerebellar c-GMP decrease and the anticonvulsant action of diazepam. Naunyn-Smiedeberg's Arch. Pharmacol. 1975, 289, 369-378).
Conditions and procedure for isoniazide antagonism test:
Isoniazide 300 mg/kg s.c.
Five mice are used for each dose level. Immediately after administration of test substance, isoniazide 300 mg/kg is injected s.c. This dose of isoniazide induces intermittent tonic clonic seizures within 60 minutes. The calculations are performed as on "on line procedure" on the EDP-terminal.

[6] = test system: lumbar dorsal horn interneurones and Renshaw cells; experiment: Microelectrophoretic experiments on central neurones of anaesthetized cats; type: in vivo; settings: bicuculline methochloride (BMC), cat central neurones
Procedure: In order to study the interactions of the compound Ia with the central GABA receptors in vivo, the compound Ia was tested in microelectrophoretic experiments. Experiments were performed on lumbar dorsal horn interneurones and Renshaw cells of cats anaesthetized with pentobarbitone sodium. The approximate potency of the depressant actions of the compound was assessed relative to that of GABA on the basis of electrophoretic currents required to produce equal and submaximal inhibitions of the firing of the central neurones. The inhibitory action of Ia on central neurones was antagonized by the specific GABA antagonist bicuculline methochloride (BMC).

GABA uptake system = experiment: Interaction with GABA uptake system; type: biochemical; parameters: dose or concentration left out as unconfirmed
[7] = biological target: GABA:2-oxo-glutarate aminotransferase (Homo sapiens, UniProt P80404); experiment: Interaction with GABA metabolizing enzyme (aminotransferase); type: biochemical; settings: concentrations of 10^-3 M
[8] = test system: L-glutamate 1-carboxylase; experiment: Interaction with GABA metabolizing enzyme (carboxylase); type: biochemical; settings: concentrations of 10^-3 M
[9] = iv, read-out: Acute Toxicity (Mice) LD50 i.v.
[10] = po, read-out: Acute Toxicity (Mice) LD50 p.o.

Sequence of GABA:2-oxo-glutarate aminotransferase (P80404 29-500): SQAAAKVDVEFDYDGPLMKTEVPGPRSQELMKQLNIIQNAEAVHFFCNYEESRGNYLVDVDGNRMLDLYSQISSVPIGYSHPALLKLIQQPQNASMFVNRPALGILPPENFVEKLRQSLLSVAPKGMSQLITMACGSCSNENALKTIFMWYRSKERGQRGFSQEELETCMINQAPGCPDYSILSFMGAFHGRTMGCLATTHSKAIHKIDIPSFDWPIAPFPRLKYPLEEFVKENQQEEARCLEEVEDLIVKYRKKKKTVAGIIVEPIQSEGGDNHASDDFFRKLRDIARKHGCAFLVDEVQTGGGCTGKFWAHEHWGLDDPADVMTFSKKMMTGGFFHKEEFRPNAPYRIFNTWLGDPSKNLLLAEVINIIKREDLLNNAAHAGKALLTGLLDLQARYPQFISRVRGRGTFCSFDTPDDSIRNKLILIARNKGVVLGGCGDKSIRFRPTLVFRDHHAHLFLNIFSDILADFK

Compound | LD50 (Acute toxicity (mice); [9]) | LD50 (Acute toxicity (mice); [10]) | ED50 [3] | minimal effective dose [4] | minimal effective dose [5] | Reversible antagonism by BMC [6] | other results
Oc1noc2c1CCNC2 [Compound Ia,HBr, 3-Hydroxy-4,5,5,7-tetrahydroisoxazolo[5,4-pyridinium bromide] | 80 mg/kg | > 320 mg/kg | 3 mg/kg | 1 mg/kg | 1.3 mg/kg | – | Behaviour after bilateral injection into substantia nigra (substantia nigra [1]; 0.1, 0.5 and 1.0 μg injected): pronounced stereotypic behaviour; Behaviour after unilateral injection into substantia nigra (substantia nigra [2]; 0.1 and 0.5 μg injected): strong and prolonged contralateral turning
NCCCC(=O)O [GABA, gamma-aminobutyric acid, reference compound] | – | – | – | – | – | yes | –
Oc1noc2c1CCNC2 [Ia, 4,5,6,7-Tetrahydroisoxazolo[5,4-c]pyridin-3-ol zwitterion] | – | – | – | – | – | yes | Interaction with the GABA uptake system (GABA uptake system): did not interact; Interaction with GABA:2-oxo-glutarate aminotransferase [7]: did not interact; Interaction with L-glutamate 1-carboxylase [8]: did not interact; Potency compared with muscimol, bilateral injection (substantia nigra [1]; substantia nigra): weaker than muscimol; Potency compared with muscimol, unilateral injection (substantia nigra [2]; substantia nigra): weaker than muscimol
NCc1cc(=O)[nH]o1 [Muscimol, muscimol] | 7 mg/kg | 22 mg/kg | – | – | – | – | LD50 (Acute toxicity (mice); ip, read-out: Acute Toxicity (Mice) LD50 i.p.): 12 mg/kg
NCc1cc(=O)[nH]o1 [Muscimol,HBr, reference compound] | – | – | 0.7 mg/kg | 0.6 mg/kg | 0.6 mg/kg | – | –
